# Data published in patent US11001569B2, “6-membered heteroaromatic substituted cyanoindoline derivatives as NIK inhibitors” (Janssen Pharmaceutica NV, priority 2016, dated 2021).
# Where “and” joins values, the source holds several entries; their conditions need not be identical. Equal values may be shown once. Read-outs that look alike come from different tables or passages of the source.
# What was measured:
# [1] = test system: JJN-3 (NIK translocated) multiple myeloma cells; assay: Antiproliferative activity on JJN-3 multiple myeloma cells (CellTiter-Glo); assay type: cell-based, human; conditions: JJN-3 (NIK translocated) cells, 96 hr treatment, averaged values, read-out: JJN-3 Proliferation inhibition (IC50 (nM))
# Outline: (§1)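 Cells plated at 15000 (JJN3) or 20000 (KMS12BM) per well and treated 96 h at 37° C, 5% CO2, final DMSO 0.3%, 9-point 1:3 dilutions. Viability by CellTiter-Glo luminescence; time-zero blank subtracted, growth expressed as percent of untreated control.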
# [2] = target: recombinant human NF-kappaB-inducing Kinase (NIK/MAP3K14) (Homo sapiens, UniProt Q99558); assay: Inhibition of auto-phosphorylation of recombinant human NIK/MAP3K14 activity (AlphaScreen); assay type: biochemical; conditions: 25 microM ATP, averaged over all measurements on all batches
# Chain of recombinant human NF-kappaB-inducing Kinase (NIK/MAP3K14) (Q99558 whole entry): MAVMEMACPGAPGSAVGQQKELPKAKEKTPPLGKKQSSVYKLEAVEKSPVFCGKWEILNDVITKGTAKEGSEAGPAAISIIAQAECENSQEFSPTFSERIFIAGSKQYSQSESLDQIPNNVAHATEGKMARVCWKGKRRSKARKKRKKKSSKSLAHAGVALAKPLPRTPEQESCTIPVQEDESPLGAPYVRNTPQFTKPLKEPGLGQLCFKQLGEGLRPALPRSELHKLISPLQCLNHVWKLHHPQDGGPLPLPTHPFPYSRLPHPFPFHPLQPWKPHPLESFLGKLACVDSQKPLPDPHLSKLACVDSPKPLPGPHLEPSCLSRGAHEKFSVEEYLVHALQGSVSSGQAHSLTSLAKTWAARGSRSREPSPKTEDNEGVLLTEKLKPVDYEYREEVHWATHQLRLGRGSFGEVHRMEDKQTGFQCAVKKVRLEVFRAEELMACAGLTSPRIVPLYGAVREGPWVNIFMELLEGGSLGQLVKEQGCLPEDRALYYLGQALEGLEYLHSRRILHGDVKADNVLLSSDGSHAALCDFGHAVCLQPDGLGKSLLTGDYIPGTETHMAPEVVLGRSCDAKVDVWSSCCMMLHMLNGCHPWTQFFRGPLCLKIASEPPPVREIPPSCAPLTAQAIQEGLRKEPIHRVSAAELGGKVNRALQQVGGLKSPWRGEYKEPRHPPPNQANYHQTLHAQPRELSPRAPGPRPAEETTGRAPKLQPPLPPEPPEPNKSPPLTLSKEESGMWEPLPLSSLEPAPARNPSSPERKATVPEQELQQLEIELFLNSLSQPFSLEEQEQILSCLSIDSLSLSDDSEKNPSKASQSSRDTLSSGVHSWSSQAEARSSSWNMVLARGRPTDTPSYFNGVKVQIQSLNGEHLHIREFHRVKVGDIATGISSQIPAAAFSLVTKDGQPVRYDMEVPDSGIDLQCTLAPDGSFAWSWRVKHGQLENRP
# [3] = test system: P-IKKα levels in L363 (NIK translocated multiple myeloma) cells; assay: Effect of compounds on P-IKKα levels in L363 cells (Mesoscale sandwich immuno-assay); assay type: cell-based, human; conditions: 2 hr treatment, averaged values, read-out: Inhibition of pIKKα_L-363 (IC50 (nM))
# Procedure: Effect of Compounds on P-IKKα Levels in L363 (NIK Translocated Multiple Myeloma) Cells
# All compounds tested were dissolved in DMSO and further dilutions were made in culture medium. Final DMSO concentration was 1% (v/v) in cell assays. The human L363 cells (ATCC) were cultured in RPMI 1640 medium supplemented with GlutaMax and 10% fetal calf serum (PAA). Cells were routinely maintained at densities of 0.2×10^6 cells per ml-1×10^6 cells per ml at 37° C. in a humidified 5% CO2 atmosphere. Cells were passaged twice a week splitting back to obtain the low density. Cells were seeded in 96 well plates (Nunc 167008) at 2×10^6 per ml media in a volume of 75 μl per well plus 25 μl 1 μg/ml recombinant human B-cell activating factor (BAFF/BLyS/TNFSF13B). Seeded cells were incubated at 37° C. in a humidified 5% CO2 atmosphere for 24 hr. Drugs and/or solvents were added (20 μl) to a final volume of 120 μl. Following 2 hr treatment plates were removed from the incubator and cell lysis was achieved by the addition of 30 μl 5× lysis buffer followed by shaking on a plate shaker at 4° C. for 10 min. At the end of this incubation lysed cells were centrifuged at 800×g for 20 min at 4° C. and the lysate was assessed for P-IKK levels by sandwich immuno-assay carried out in anti-rabbit antibody coated Mesoscale plates. Within an experiment, the results for each treatment were the mean of 2 replicate wells. For initial screening purposes, compounds were tested using an 8 point dilution curve (serial 1:3 dilutions). […] The blank incubation value was subtracted from all control and sample values. To determine the IC50 a sigmoidal curve was fitted to the plot of % inhibition of control P-IKKα levels versus Log10 compound concentration.
# [4] = test system: KMS12-BM (NIK WT) multiple myeloma cells; assay: Antiproliferative activity on KMS12-BM multiple myeloma cells (CellTiter-Glo); assay type: cell-based, human; conditions: 96 hr treatment, averaged values, read-out: KMS-12 Proliferation inhibition (IC50 (nM))
# Outline: as §1
"IC50 ([1]; Homo sapiens, JJN-3, 96 h) [nM]",IC50 [2] [nM],melting point,"IC50 ([3]; Homo sapiens, L-363, 2 h) [nM]","IC50 ([4]; Homo sapiens, KMS-12-BM, 96 h) [nM]",IC50 [3] [nM],IC50 [1] [nM],IC50 [4] [nM],SMILES
~295,2.9,192 °C,1.2,> 10000,–,–,–,COc1nc(/C=C/C(=O)N(C)C)ccc1Nc1nccc(-c2cc(C#N)c3c(c2)[C@@](C)(CO)CN3)n1 [Compound 48]
35,1.6,195 °C,0.8,~9330,–,–,–,COc1nc(CCC(=O)N(C)C)ccc1Nc1nccc(-c2cc(C#N)c3c(c2)[C@@](C)(CO)CN3)n1 [Compound 49]
145,1.3,247 °C,4.2,6610,–,–,–,Cc1ncc(C#N)cc1Nc1nccc(-c2cc(C#N)c3c(c2)[C@@](C)(CO)CN3)n1 [Compound 50]
31,3,152 °C,2.8,> 10000,–,–,–,COCCN(C)c1nc(C)c(Nc2nccc(-c3cc(C#N)c4c(c3)[C@@](C)(CO)CN4)n2)cc1Cl [Compound 51]
251,~1.48,281 °C,0.7,871,–,–,–,CN(C)C(=O)COc1ncc(Cl)cc1Nc1nccc(-c2cc(C#N)c3c(c2)[C@@](C)(CO)CN3)n1 [Compound 52]
16,2.5,234 °C and 237 °C,13.2,> 10000,–,–,–,COc1ncc(C)cc1Nc1nccc(-c2cc(C#N)c3c(c2)[C@@](C)(CO)CN3)n1 [Compound 59]
389,3,186 °C,19.5,> 10000,–,–,–,COCCOc1ncc(F)cc1Nc1nccc(-c2cc(C#N)c3c(c2)[C@@](C)(CO)CN3)n1 [Compound 61]
98,2.9,193 °C,17.4,> 10000,–,–,–,CCCc1ncc(C#N)cc1Nc1nccc(-c2cc(C#N)c3c(c2)[C@@](C)(CO)CN3)n1 [Compound 63]
35,4.7,145 °C,27.5,6460,–,–,–,C[C@]1(CO)CNc2c(C#N)cc(-c3ccnc(Nc4cc(C#N)cnc4CCC4CC4)n3)cc21 [Compound 64]
263,4.5,158 °C,15.5,> 10000,–,–,–,COCCCc1ncc(C#N)cc1Nc1nccc(-c2cc(C#N)c3c(c2)[C@@](C)(CO)CN3)n1 [Compound 65]
41,3.3,178 °C,~141,> 10000,–,–,–,CCCCc1ncc(C#N)cc1Nc1nccc(-c2cc(C#N)c3c(c2)[C@@](C)(CO)CN3)n1 [Compound 66]
263,3.2,186 °C,~129,> 10000,–,–,–,COCCOc1ncc(C)cc1Nc1nccc(-c2cc(C#N)c3c(c2)[C@@](C)(CO)CN3)n1 [Compound 69]
144,1.6,231 °C,~13,~234,–,–,–,Cc1nc(/C=C/C(=O)N(C)C)ccc1Nc1nccc(-c2cc(C#N)c3c(c2)[C@@](C)(CO)CN3)n1 [Compound 73]
141,16.2,206 °C,~120,> 10000,–,–,–,C[C@]1(CO)CNc2c(C#N)cc(-c3ccnc(Nc4cc(C#N)cnc4OCC4CC4)n3)cc21 [Compound 74]
> 10000,5.1,162 °C,26.9,> 10000,–,–,–,CC1(COc2ncc(C#N)cc2Nc2nccc(-c3cc(C#N)c4c(c3)[C@@](C)(CO)CN4)n2)COC1 [Compound 76]
60,5,162 °C,25.7,> 10000,–,–,–,CC(C)(O)COc1ncc(C#N)cc1Nc1nccc(-c2cc(C#N)c3c(c2)[C@@](C)(CO)CN3)n1 [Compound 77]

"IC50 ([1]; Homo sapiens, JJN-3, 96 h) [nM]",IC50 [2] [nM],melting point,"IC50 ([3]; Homo sapiens, L-363, 2 h) [nM]","IC50 ([4]; Homo sapiens, KMS-12-BM, 96 h) [nM]",IC50 [3] [nM],IC50 [1] [nM],IC50 [4] [nM],SMILES
513,4.7,318 °C,20.9,> 10000,–,–,–,CC(C)(O)c1ccc(Nc2nccc(-c3cc(C#N)c4c(c3)[C@@](C)(CO)CN4)n2)c(CCC2CC2)n1 [Compound 81]
1180,12,206 °C,53.7,> 10000,–,–,–,Cc1cnc(OCC2CC2)c(Nc2nccc(-c3cc(C#N)c4c(c3)[C@@](C)(CO)CN4)n2)c1 [Compound 86]
148,4.2,198 °C,22.4,> 10000,–,–,–,CN(C)C(=O)/C=C/c1ccc(Nc2nccc(-c3cc(C#N)c4c(c3)[C@@](C)(CO)CN4)n2)c(CCC2CC2)n1 [Compound 88]
912,3.6,301 °C,14.8,> 10000,–,–,–,CN(C)C(=O)CCc1ccc(Nc2nccc(-c3cc(C#N)c4c(c3)[C@@](C)(CO)CN4)n2)c(CCC2CC2)n1 [Compound 89]
81,8.9,166 °C,5.4,> 10000,–,–,–,COc1nc(-c2cnn(C)c2)c(C)cc1Nc1nccc(-c2cc(C#N)c3c(c2)[C@@](C)(CO)CN3)n1 [Compound 91]
1440,2.1,165 °C,5.6,9550,–,–,–,CNC(=O)c1cnc(C)c(Nc2nccc(-c3cc(C#N)c4c(c3)[C@@](C)(CO)CN4)n2)c1 [Compound 93]
5.2,2.8,135 °C,4.1,7080,–,–,–,Cc1cnc(OC2CCN(C)CC2)c(Nc2nccc(-c3cc(C#N)c4c(c3)[C@@](C)(CO)CN4)n2)c1 [Compound 146]
132,12,171 °C,25.7,> 10000,–,–,–,Cc1cnc(CCN2CC(F)C2)c(Nc2nccc(-c3cc(C#N)c4c(c3)[C@@](C)(CO)CN4)n2)c1 [Compound 150]
240,5.8,180 °C,–,~5890,9.3,–,–,Cc1cnc(OC2CN(C)CC2F)c(Nc2nccc(-c3cc(C#N)c4c(c3)[C@@](C)(CO)CN4)n2)c1 (some centres unmarked) [Compound 153]
–,7.2,185 °C,–,–,3,148,~7940,Cc1cnc(OC2CN(C)CC2F)c(Nc2nccc(-c3cc(C#N)c4c(c3)[C@@](C)(CO)CN4)n2)c1 (some centres unmarked) [Compound 154]
–,12,220 °C,–,–,19.5,81,~2880,Cc1cnc(OC2CCN(C)CC2F)c(Nc2nccc(-c3cc(C#N)c4c(c3)[C@@](C)(CO)CN4)n2)c1 (some centres unmarked) [Compound 155]
105,2.3,245 °C,6.3,~6460,–,–,–,Cc1cnc(CO)cc1Nc1nccc(-c2cc(C#N)c3c(c2)[C@@](C)(CO)CN3)n1 [Compound 156]
62,9.3,173 °C,25.7,> 10000,–,–,–,Cc1cc(Nc2nccc(-c3cc(C#N)c4c(c3)[C@@](C)(CO)CN4)n2)c(OC(C)C)nc1CCN1CC(F)C1 [Compound 157]
89,5.6,179 °C,5.9,> 10000,–,–,–,Cc1cc(Nc2nccc(-c3cc(C#N)c4c(c3)[C@@](C)(CO)CN4)n2)c(C)nc1OCC1(C)COC1 [Compound 159]
115,3.9,189 °C,2.1,> 10000,–,–,–,Cc1cc(Nc2nccc(-c3cc(C#N)c4c(c3)[C@@](C)(CO)CN4)n2)c(C)nc1OCC1COC1 [Compound 160]
